Numbers after ± are expanded uncertainties.
Test: refractive index (Na D-line) (dimensionless)
Settings: 101 kPa, Liquid, Standard Abbe refractometry

CC(=O)c1cccs1 [2-acetylthiophene]
refractive index (283.15 K): 1.5705 ± 0.0003 | refractive index (285.65 K): 1.5692 ± 0.0003 | refractive index (288.15 K): 1.568 ± 0.0003 | refractive index (290.65 K): 1.567 ± 0.0003 | refractive index (293.15 K): 1.5658 ± 0.0003 | refractive index (295.65 K): 1.5646 ± 0.0003 | refractive index (298.15 K): 1.5633 ± 0.0003 | refractive index (300.65 K): 1.5622 ± 0.0003 | refractive index (303.15 K): 1.5609 ± 0.0003 | refractive index (305.65 K): 1.5599 ± 0.0003 | refractive index (308.15 K): 1.5586 ± 0.0003 | refractive index (310.65 K): 1.5573 ± 0.0003 | refractive index (313.15 K): 1.5562 ± 0.0003 | refractive index (315.65 K): 1.555 ± 0.0003 | refractive index (318.15 K): 1.5538 ± 0.0003 | refractive index (320.65 K): 1.5526 ± 0.0003 | refractive index (323.15 K): 1.5514 ± 0.0003 | refractive index (325.65 K): 1.5502 ± 0.0003 | refractive index (328.15 K): 1.549 ± 0.0003 | refractive index (330.65 K): 1.548 ± 0.0003 | refractive index (333.15 K): 1.5468 ± 0.0003 | refractive index (335.65 K): 1.5455 ± 0.0003 | refractive index (338.15 K): 1.5443 ± 0.0003

From the NIST ThermoML archive (doi:10.1016/j.fluid.2016.10.026)
